Drawing on article PMC5887547, “An allosteric inhibitor of Mycobacterium tuberculosis ArgJ: Implications to a novel combinatorial therapy” (EMBO Molecular Medicine, 2018), this text covers Km and Kd for 3 compounds.

The test system of data set [1] is CC(=O)N[C@@H](CCCN)C(=O)O. As to the kind of experiment: purified protein. The note with it: active (substrate-binding) site.
In data set [2] the target is T1, Ornithine acetyltransferase (MtArgJ) (Mycobacterium tuberculosis, UniProt P9WPZ3).
T1 construct: gene argJ
The data set is described as follows: thermal shift assay (apparent Kd); also ANS displacement ([…]) and enzyme inhibition by TLC assay (Dixon Ki […]). It counts as binding.

Data set [3] deals with T1, Ornithine acetyltransferase (MtArgJ). The data set is described as follows: […]; marginal decrease of enzyme activity (TLC assay). It counts as binding.

T1 sequence (P9WPZ3 1-199): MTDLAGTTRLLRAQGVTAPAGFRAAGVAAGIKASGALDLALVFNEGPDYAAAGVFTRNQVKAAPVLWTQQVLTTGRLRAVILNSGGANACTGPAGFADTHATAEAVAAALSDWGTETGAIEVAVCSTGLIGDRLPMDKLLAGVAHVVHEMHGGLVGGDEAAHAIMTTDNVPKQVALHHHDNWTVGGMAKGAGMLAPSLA
T1 sequence (P9WPZ3 200-404): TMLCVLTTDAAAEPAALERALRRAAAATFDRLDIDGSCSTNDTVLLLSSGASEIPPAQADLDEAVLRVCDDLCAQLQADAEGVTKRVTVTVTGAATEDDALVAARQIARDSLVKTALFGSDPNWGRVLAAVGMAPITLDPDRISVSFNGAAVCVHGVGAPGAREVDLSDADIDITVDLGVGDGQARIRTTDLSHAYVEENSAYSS

Regarding “Ornithine acetyltransferase (MtArgJ) (Mycobacterium tuberculosis H37Rv)”, the Km (in general, the concentration of substrate that gives half-maximal velocity) in data set [1] was determined as 91.8 µM.

For `O=C(Nc1cccc2c(=O)cc(-c3nnn[nH]3)oc12)c1ccc(OCCCCc2ccccc2)cc1` [PRK, Pranlukast], the Kd in data set [2] was 126 µM.

Compound `O=S(=O)(O)c1cccc2cccc(Nc3ccccc3)c12` [ANS, 8‐anilinonaphthalene‐1‐sulfonic acid] gave a Kd in data set [3] of 937 µM.
